Results on 13 compounds are retold here after PMC8565515, “Dasabuvir Inhibits Human Norovirus Infection in Human Intestinal Enteroids” (mSphere, 2021).

The EC50 is the midpoint of the concentration-response curve.

Structures can show the parent of a compound that is named as a salt. Where two headings read alike, the source gives them in different places.

The subject of data set [1] is J2 HIE monolayers. Put plainly: Cytotoxicity by LDH assay in J2 HIE monolayers. The following applies: for (%) Cytotoxicity: compound 10 μM, n = 1, LDH assay, J2 HIE monolayers infected with GII.4 HuNoV, 24 hpi, normalized to DMSO control.
In another data set the test system is SARS-CoV-2. The data set is classed as cell-based. The following applies: VeroE6/TMPRSS2 cells, 20 h.
The subject of data set [2] is RdRp of Middle East respiratory syndrome coronavirus (MERS-CoV). The settings on record: cited from earlier work.
Data set [3] concerns J2 HIE monolayers. It counts as cell-based. The following applies: human, 20 h, 50 μM. How it is done:
Supplementary file : FIG S2 Cell viability and cytotoxicity of dasabuvir in J2 HIE monolayers. J2 HIE monolayers were treated with DSB at the indicated concentrations for 20 h. Cell viability or cytotoxicity was measured using CellTiter-Glo luminescent cell viability assay or the Cytotoxicity LDH assay kit-WST, respectively. Results were normalized to DMSO control. Values represent the mean ± SD (n = 7). Download FIG S2, TIF file, 0.8 MB.

A further data set concerns VeroE6/TMPRSS2 cells. The following applies: 20 h.
The subject of data set [4] is human rotavirus A (RVA) Wa strain. The data set is classed as cell-based. The settings on record: 20 μM, J2 HIE monolayers, 20 hpi.
For data set [5] the following is noted: healthy volunteers, 1,000 mg twice a day [BID] for 10 days; read-out: maximum plasma concentration (Cmax); cited from earlier work.
Another data set concerns HCV of genotype 1. Also noted: method as in PMID 25534735. The settings on record: HCV genotype 1 subgenomic replicon; cited from earlier work.
The next data set concerns GII.4 HuNoV. Nature of the data set: GII.4 HuNoV infection of HIE monolayers, viral genome equivalents by RT-qPCR. It counts as cell-based, human norovirus. The following applies: for activity at 10 µM / EC50: Norovirus; for activity at 10 µM: 24 h, read-out: (%) HuNoV GEs. Background: Real-time PCR tracks product formation cycle by cycle.
Another data set deals with SARS-CoV-2 (WK-521). Nature of the data set: SARS-CoV-2 infection of J2 HIE monolayers, viral GEs by RT-qPCR. The settings on record: 20 μM, 20 hpi.
The test system of another data set is GII.3 HuNoV. Put plainly: microbe, parasite or virus in culture. It counts as cell-based, human norovirus. The following applies: Norovirus, read-out: EC50, HuNoV GEs.
Where [6] appears, read: compound 10 μM, n = 1, J2 HIE monolayers, GII.4 HuNoV, 24 hpi, normalized to DMSO control.

For `COc1c(-c2ccc3cc(NS(C)(=O)=O)ccc3c2)cc(-n2ccc(=O)[nH]c2=O)cc1C(C)(C)C` [Dasabuvir], the “increase of LDH release (cytotoxicity)” value in the data set on J2 HIE monolayers [1] (50 μM, 20 h, uninfected J2 monolayers, compared to DMSO control) was found to be 10%. In addition, the “(%) Cytotoxicity” value in the data set with J2 HIE monolayers [1] is given as -4.83%. Also, the “effect on SARS-CoV-2 infection” value in the data set on SARS-CoV-2 was “inhibition”. Further, the “inhibition of RdRp activity” value in data set [2] was “partially inhibits”. Also, in the data set on J2 HIE monolayers [3], the “reduction of cellular ATP (cell viability)” value was found to be 17%. Moreover, the cytotoxicity entry in the data set on VeroE6/TMPRSS2 cells was “no cytotoxicity”. Further, in data set [4], the “fold decrease of RVA infection (viral GEs)” value stood at 2.75 fold. The Cmax in data set [5] is around 5.61 µM. For the same compound, the 50% effective concentration (EC50) with HCV of genotype 1 was below 0.01 µM; in the data set with GII.4 HuNoV (J2 + GII.4, 20 hpi, read-out: EC50, HuNoV GEs) it was 11.7 µM; with GII.4 HuNoV (J3 + GII.4, 20 hpi, read-out: EC50, HuNoV GEs), 12.4 µM; with GII.4 HuNoV (range over GII.4 and GII.3 HuNoV in J2 and J3 HIEs (Fig. 2), read-out: EC50 values, HuNoV infection), 7.55 to 12.4 µM; in the data set on GII.3 HuNoV (J2 + GII.3, 20 hpi), 7.55 µM; in the data set with GII.3 HuNoV (J3 + GII.3, 20 hpi) it was 9.85 µM. Further, the activity at 10 µM with GII.4 HuNoV (setting [6]) amounted to 1.14%. Moreover, in the data set with SARS-CoV-2 (WK-521), the “fold decrease of SARS-CoV-2 infection (viral GEs)” value was 26.9 fold.
Consider `CC(N)C12CC3CC(CC(C3)C1)C2` (stereo not shown) [Rimantadine hydrochloride], for which the “(%) Cytotoxicity” value in the data set with J2 HIE monolayers [1] turned out to be 2.41%. Also, the activity at 10 µM in the data set with GII.4 HuNoV (setting [6]) turned out to be 40.9%.
Taken in the same sequence, the figures for `COc1ccc(C2CNC(=O)C2)cc1OC1CCCC1` (stereo not shown) [Rolipram] were -0.46% and 78.7%.
For `CC(C)OC(=O)[C@H](C)N[P@](=O)(OC[C@H]1O[C@@H](n2ccc(=O)[nH]c2=O)[C@](C)(F)[C@@H]1O)Oc1ccccc1` [Sofosbuvir], in the data set on J2 HIE monolayers [1], the “(%) Cytotoxicity” value is reported as 0.74%. For the same compound, the activity at 10 µM with GII.4 HuNoV (setting [6]) was determined as 22.6%.
With `CN[C@@H]1[C@H](O)[C@H](NC)[C@H]2O[C@@]3(O)C(=O)C[C@@H](C)O[C@H]3O[C@@H]2[C@H]1O.Cl.Cl` [Spectinomycin dihydrochloride], the “(%) Cytotoxicity” value in the data set with J2 HIE monolayers [1] is given as -1.44%. Also, the “(%) HuNoV GEs” value in the data set on GII.4 HuNoV (setting [6]) was determined as 109.17%.
Turning to `CC(C)OC(=O)[C@H](C)N[P@](=O)(CO[C@H](C)Cn1cnc2c(N)ncnc21)Oc1ccccc1` [Tenofovir alafenamide], in the data set on J2 HIE monolayers [1], the “(%) Cytotoxicity” value was -0.20%. Moreover, in the data set on GII.4 HuNoV, the activity at 10 µM worked out at 55.2%.
As to `CN(C)[C@@H]1C(O)=C(C(N)=O)C(=O)[C@@]2(O)C(O)=C3C(=O)c4c(O)cccc4[C@@](C)(O)[C@H]3C[C@@H]12` [Tetracycline], in the data set on J2 HIE monolayers [1], the “(%) Cytotoxicity” value came out at 0.09%. Besides, the activity at 10 µM with GII.4 HuNoV (setting [6]) turned out to be 108%.
The like results for `O=C(Nc1ncc([N+](=O)[O-])s1)c1ccccc1O` [Tizoxanide] were, in that order, 2.28% and 40%.
The like results for `CC(C)OC(=O)C1=CN(C(=O)c2ccc(F)c(F)c2)CC(C)(C)c2c1[nH]c1ccccc21` [Turofexorate Isopropyl] were, in that order, 0.86% and 31.9%.
For `COC[C@H]1C[C@@H](c2ncc(-c3ccc4c(c3)COc3cc5c(ccc6nc([C@@H]7CC[C@H](C)N7C(=O)[C@@H](NC(=O)OC)C(C)C)[nH]c65)cc3-4)[nH]2)N(C(=O)[C@H](NC(=O)OC)c2ccccc2)C1` [Velpatasvir], the “(%) Cytotoxicity” value in the data set with J2 HIE monolayers [1] was 1.45%. Besides, the activity at 10 µM with GII.4 HuNoV (setting [6]) was 59.8%.
The like results for `O=C(/C=C\n1cnc(-c2cc(C(F)(F)F)cc(C(F)(F)F)c2)n1)NNc1ccccn1` [Verdinexor] were, in that order, 10.81% and 142%.
The like results for `COc1cc(O)c(CC=C(C)C)c(O)c1C(=O)/C=C/c1ccc(O)cc1` [Xanthohumol] were, in that order, 2.40% and 67.3%.
With Vitamin E, the “(%) Cytotoxicity” value with J2 HIE monolayers [1] is on record as -0.33%. Besides, in the data set with GII.4 HuNoV (setting [6]), the “(%) HuNoV GEs” value is 125.47%.
